The source of these data is patent US20240416143A1, “PHOTONIC ANTIMICROBIAL WOUND SURFACE DRESSING” (The General Hospital Corporation, priority 2021, published 2024).

The test system of this assay is P. aeruginosa biofilms in porcine explants. The experiment in a line: Photoinactivation of biofilms in ex vivo porcine partial thickness wounds by menadione + aBL. Format: cell-based, Pseudomonas aeruginosa. Here is the method:
Skin was handled and sanitized with 70% isopropanol solution after hair shaving. The explants and inner wounds were created using a 12 mm and 4 mm biopsy punches respectively. The explants were placed in 12 wells plates using a (8 μm pore) inserts (Corning™ Falcon™). 1 mL of DMEM media was added to each well in the plate before the insert. After 24 hours, the inner wounds in the explants were inoculated with 20 μL of 10^8 CFU/mL of bacterial solution. After that, the explants were incubated at 37° C. and 5% CO2 for 48 hours to ensure the growth of a mature bacterial biofilm. The inner wounds of the explants were replenished daily with fresh BHI media to ensure that the wounds are hydrated.
48 hours following the inoculation, mature monobacterial biofilms of MRSA, P. aeruginosa, and E. coli were obtained with 8.00 log10 CFU/g per wound bed on each explant. MRSA biofilms in explant were reduced by 0.81 log10 CFU/g after the treatment of just aBL 250 J/cm^2 (50 mW/cm^2). However, MRSA biofilms in ex-vivo porcine skin were reduced by up to 4.18 log10 CFU/g when treated with aBL combined with menadione (200 μg/mL). For MRSA biofilms, the log reduction of mature monobacterial biofilm increased as the menadione concentration increased (see FIGS. 16A-16B). […]

`CC1=CC(=O)c2ccccc2C1=O` [menadione, 2-methyl-1,4-naphthoquinone]: the “biofilm reduction by menadione and blue light” value (50 μg/mL menadione + blue light) was 5.27 log10 CFU/mL. For the same compound, the “biofilm reduction by menadione in the absence of aBL” value (no aBL) is “no effect of biofilm reduction”.
